Test results reported in patent publication US20240067632A1, “WEE1 Degrading Compounds and Uses Thereof” (Bristol-Myers Squibb Company, priority 2022, published 2024).
Read-outs that look alike come from different tables or passages of the source.

Tests used:
WEE1 = biological target: T1, WEE1 (Homo sapiens, UniProt P30291+Q96SW2); test: WEE1-ePL degradation assay (LentiX-WEE1-ePL-GSPT1-ND cells, InCELL Hunter luminescence, 4 h); assay type: cell-based; conditions: 293T-LentiX WEE1-ePL cells; for DC50: read-out: 293T-LentiX WEE1-ePL Degradation 4 hr (EC50)
T1 construct: C-terminal ePL-tagged (DiscoverX, Fremont, CA) full-length WEE1 expression construct; expressed in transfected cells; host or cells: LentiX-HEK293T (Invitrogen), lentiviral transduction; co-expressing GSPT1-GN (G576N, lacking the first 158 amino acids)
Method in brief: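 Degradation EC50 was fitted by a four-parameter logistic model, with the upper limit taken from DMSO wells. Luminescence was read with InCELL Hunter reagent after 30 min at room temperature, following a 4 h, 37° C exposure of 2500 cells/well. Cells were LentiX-HEK293T carrying ePL-tagged full-length WEE1, dosed in 10 points (3-fold) from 1 or 10 uM.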

MKN45 cells = test: MKN45 cell proliferation assay (Cell-Titer-Glo, 120 h); assay type: cell-based; conditions: for EC50: Homo sapiens, MKN-45, 120 h, Cell-Titer-Glo, read-out: MKN45 Cell Prolif. 120 hr (EC50); for MKN45 Cell Prolif. 120 hr (Ymin-Obs): minimal percent of DMSO control observed in the concentrations tested
Method in brief: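 Cells seeded at 400/well onto pre-printed 10-point half-log dilutions (top 1 or 10 uM, 0.1% DMSO final), in triplicate, and grown 120 h at 37 C. Viability by Cell-Titer-Glo luminescence, blank-subtracted and normalised to DMSO; EC50 from four-parameter logistic fit, with observed minimal % of control recorded as Ymin-obs.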

[1] = lower limit of the fit (0 = luciferase inhibitor, Ymax = DMSO control)
[2] = lower limit of the fit (Ymin=0 luciferase inhibitor, Ymax DMSO control)

SMILES	293T-LentiX WEE1-ePL Degradation 4 hr (Ymin) (WEE1; [1])	DC50 (WEE1) [nM]	EC50 (MKN45 cells; growth inhibition) [nM]	293T-LentiX WEE1-ePL Degradation 4 hr (Ymin) (WEE1; [2])	EC50 (MKN45 cells) [nM]	MKN45 Cell Prolif. 120 hr (Ymin-Obs) (MKN45 cells)
O=C1CCC(N2Cc3cc(O[C@H]4CCN(Cc5ccc6ncc(F)cc6c5)C4)ccc3C2=O)C(=O)N1 (stereo partly drawn) [3-(5-{[(3S)-1-[(3-fluoroquinolin-6-yl)methyl]pyrrolidin-3-yl]oxy}-1-oxo-2,3-dihydro-1H-isoindol-2-yl)piperidine-2,6-dione]	34.66	8.72	75.7			19.555
O=C1CCC(N2Cc3cc(O[C@H]4CCN(Cc5ccc6nc(N7CCS(=O)(=O)CC7)ccc6c5)C4)ccc3C2=O)C(=O)N1 (stereo partly drawn) [4-(6-{[(3S)-3-{[2-(2,6-dioxopiperidin-3-yl)-1-oxo-2,3-dihydro-1H-isoindol-5-yl]oxy}pyrrolidin-1-yl]methyl}quinolin-2-yl)-1λ^6-thiomorpholine-1,1-dione]	40	19.1	29.4			10.02
O=C1CCC(N2Cc3cc(O[C@H]4CCN(Cc5ccc6nc(N7CCCC(F)(F)C7)ccc6c5)C4)ccc3C2=O)C(=O)N1 (stereo partly drawn) [3-(5-{[(3S)-1-{[2-(3,3-difluoropiperidin-1-yl)quinolin-6-yl]methyl}pyrrolidin-3-yl]oxy}-1-oxo-2,3-dihydro-1H-isoindol-2-yl)piperidine-2,6-dione]	25.84	18.5	11.2			12.35
CNc1ncc2cc(CN3CC[C@H](Oc4ccc5c(c4)CN(C4CCC(=O)NC4=O)C5=O)C3)ccc2n1 (stereo partly drawn) [3-(5-{[(3S)-1-{[2-(methylamino)quinazolin-6-yl]methyl}pyrrolidin-3-yl]oxy}-1-oxo-2,3-dihydro-1H-isoindol-2-yl)piperidine-2,6-dione]	41	44.8	234			22.48
O=C1CCC(N2Cc3cc(O[C@H]4CCN(Cc5ccc6nc(N7CCC[C@]78CCOC8)ccc6c5)C4)ccc3C2=O)C(=O)N1 (stereo partly drawn) [3-(5-{[(3S)-1-({2-[(5R)-7-oxa-1-azaspiro[4.4]nonan-1-yl]quinolin-6-yl}methyl)pyrrolidin-3-yl]oxy}-1-oxo-2,3-dihydro-1H-isoindol-2-yl)piperidine-2,6-dione]	46	6.81	10.9			17.85
O=C1CCC(N2Cc3cc(O[C@H]4CCN(Cc5cc6ccccc6cn5)C4)c(F)cc3C2=O)C(=O)N1 (stereo partly drawn) [3-(6-fluoro-5-{[(3S)-1-[(isoquinolin-3-yl)methyl]pyrrolidin-3-yl]oxy}-1-oxo-2,3-dihydro-1H-isoindol-2-yl)piperidine-2,6-dione]	34	10.6	53.7			7.57
C[C@@H]1CN(Cc2ccc3nc([C@H]4CCOC4)ccc3c2)C[C@H]1Oc1ccc2c(c1)CN(C1CCC(=O)NC1=O)C2=O (stereo partly drawn) [3-(5-{[(3S,4R)-4-methyl-1-({2-[(3R)-oxolan-3-yl]quinolin-6-yl}methyl)pyrrolidin-3-yl]oxy}-1-oxo-2,3-dihydro-1H-isoindol-2-yl)piperidine-2,6-dione]		1.41		33.41	2.32	10.26

The next lines start with results.

293T-LentiX WEE1-ePL Degradation 4 hr (Ymin) (WEE1; [1])	DC50 (WEE1) [nM]	EC50 (MKN45 cells; growth inhibition) [nM]	293T-LentiX WEE1-ePL Degradation 4 hr (Ymin) (WEE1; [2])	EC50 (MKN45 cells) [nM]	SMILES	MKN45 Cell Prolif. 120 hr (Ymin-Obs) (MKN45 cells)
	1.63		27.12	1.73	COC[C@@H]1CCC[C@H](c2ccc3cc(CN4CC[C@H](Oc5ccc6c(c5)CN(C5CCC(=O)NC5=O)C6=O)C4)ccc3n2)C1 (stereo partly drawn) [3-(5-{[(3S)-1-({2-[(1S,3R)-3-(methoxymethyl)cyclohexyl]quinolin-6-yl}methyl)pyrrolidin-3-yl]oxy}-1-oxo-2,3-dihydro-1H-isoindol-2-yl)piperidine-2,6-dione]	10.23
34	5.83	5.29			CO[C@H]1CCCN(c2ccc3cc(CN4CC[C@H](Oc5ccc6c(c5)CN(C5CCC(=O)NC5=O)C6=O)C4)ccc3n2)C1 (stereo partly drawn) [3-(5-{[(3S)-1-({2-[(3S)-3-methoxypiperidin-1-yl]quinolin-6-yl}methyl)pyrrolidin-3-yl]oxy}-1-oxo-2,3-dihydro-1H-isoindol-2-yl)piperidine-2,6-dione]	10.12
36	6.24	45.2			COc1ccc2cc(CN3CC[C@H](Oc4ccc5c(c4)CN(C4CCC(=O)NC4=O)C5=O)C3)ccc2n1 (stereo partly drawn) [3-(5-{[(3S)-1-[(2-methoxyquinolin-6-yl)methyl]pyrrolidin-3-yl]oxy}-1-oxo-2,3-dihydro-1H-isoindol-2-yl)piperidine-2,6-dione]	19.71
	6.04		43.18	26.9	O=C1CC[C@H](N2Cc3cc(O[C@H]4CCN(Cc5ccc6nc(N7CCCC7)ncc6c5)C4)ccc3C2=O)C(=O)N1 [(3S)-3-(1-oxo-5-{[(3S)-1-{[2-(pyrrolidin-1-yl)quinazolin-6-yl]methyl}pyrrolidin-3-yl]oxy}-2,3-dihydro-1H-isoindol-2-yl)piperidine-2,6-dione]	21.92
33	4.28	11.1			COCc1cnc2ccc(CN3CC[C@H](Oc4ccc5c(c4)CN(C4CCC(=O)NC4=O)C5=O)C3)cc2c1 (stereo partly drawn) [3-(5-{[(3S)-1-{[3-(methoxymethyl)quinolin-6-yl]methyl}pyrrolidin-3-yl]oxy}-1-oxo-2,3-dihydro-1H-isoindol-2-yl)piperidine-2,6-dione]	7.64
34	216	5050			CN1CCc2ncc(CN3CC[C@H](Oc4ccc5c(c4)CN(C4CCC(=O)NC4=O)C5=O)C3)cc2C1 (stereo partly drawn) [3-(5-{[(3S)-1-[(6-methyl-5,6,7,8-tetrahydro-1,6-naphthyridin-3-yl)methyl]pyrrolidin-3-yl]oxy}-1-oxo-2,3-dihydro-1H-isoindol-2-yl)piperidine-2,6-dione]	33.405
	2.67		42.32	17.8	C[C@@H]1c2cc(O[C@H]3CCN(Cc4ccc5nc(C6CCOCC6)ccc5c4)C3)ccc2C(=O)N1[C@H]1CCC(=O)NC1=O [(3S)-3-[(3R)-3-methyl-5-{[(3S)-1-{[2-(oxan-4-yl)quinolin-6-yl]methyl}pyrrolidin-3-yl]oxy}-1-oxo-2,3-dihydro-1H-isoindol-2-yl]piperidine-2,6-dione]	20.63
61	68.8	> 10000			Cn1ncc2cc(CN3CC[C@H](Oc4ccc5c(c4)CN(C4CCC(=O)NC4=O)C5=O)C3)ccc21 (stereo partly drawn) [3-(5-{[(3S)-1-[(1-methyl-1H-indazol-5-yl)methyl]pyrrolidin-3-yl]oxy}-1-oxo-2,3-dihydro-1H-isoindol-2-yl)piperidine-2,6-dione]	86.69
46	21	290			O=C1CCC(N2Cc3cc(O[C@H]4CCN(Cc5ccc6ccncc6c5)C4)ccc3C2=O)C(=O)N1 (stereo partly drawn) [3-(5-{[(3S)-1-[(isoquinolin-7-yl)methyl]pyrrolidin-3-yl]oxy}-1-oxo-2,3-dihydro-1H-isoindol-2-yl)piperidine-2,6-dione]	54.45
